Read-outs that look alike come from different tables or passages of the source.
Target: T1, human TPH1 (Homo sapiens, UniProt P17752)
T1 sequence (P17752 1-444): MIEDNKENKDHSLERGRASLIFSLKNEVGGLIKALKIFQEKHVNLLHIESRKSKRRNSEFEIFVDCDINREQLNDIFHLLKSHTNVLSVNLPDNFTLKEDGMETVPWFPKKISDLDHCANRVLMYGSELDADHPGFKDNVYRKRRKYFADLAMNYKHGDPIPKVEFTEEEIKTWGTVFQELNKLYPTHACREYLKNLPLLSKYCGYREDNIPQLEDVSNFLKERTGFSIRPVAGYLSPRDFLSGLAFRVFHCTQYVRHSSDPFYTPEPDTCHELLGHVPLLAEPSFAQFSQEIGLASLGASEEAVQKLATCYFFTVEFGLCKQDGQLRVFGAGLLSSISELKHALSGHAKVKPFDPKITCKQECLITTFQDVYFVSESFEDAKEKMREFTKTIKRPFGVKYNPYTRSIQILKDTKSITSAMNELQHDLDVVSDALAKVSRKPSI
Assay: biochemical
How it was run: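 Inhibition is derived from 5-hydroxy-L-tryptophan fluorescence (540 nm emission, 300 nm excitation) after perchloric acid stop, relative to DMSO vehicle. Recombinant full-length human enzyme (40-80 nM) reacts with 40 μM tryptophan plus 100 μM methyltetrahydropterin, pH 7.6 Tris/DTT/catalase, 15° C, 60 min.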

Structure (SMILES) | IC50 [nM] | IC50 (Table 1, full length human TPH1, 40 μM L-tryptophan, 15° C., 60 minutes, mean if determined several times) [nM]
CCc1cc(N2CCOCC2)ccc1OCC(=O)N1CCc2nc3cc(C(F)(F)F)ccn3c2C1c1ccc(OC)c(OC)c1 (stereo not drawn) [Example 3.1.33, 1-(1-(3,4-dimethoxyphenyl)-7-(trifluoromethyl)-3,4-dihydroimidazo[1,2-a:5,4-c′]dipyridin-2(1H)-yl)-2-(2-ethyl-4-morpholinophenoxy)ethan-1-one] | 12 | 
COc1ccc(C2c3c(nc4cc(C(F)(F)F)ccn34)CCN2C(=O)COc2cccnc2C2CC2)cc1OC (stereo not drawn) [Example 3.1.35] | 336 | 
O=C(COc1ccc(CN2CCOCC2)cc1Cl)N1CCc2nc3cc(C(F)(F)F)ccn3c2C1c1cccnc1F (stereo not drawn) [Example 3.2.1, 2-(2-chloro-4-(morpholinomethyl)phenoxy)-1-(1-(2-fluoropyridin-3-yl)-7-(trifluoromethyl)-3,4-dihydroimidazo[1,2-a:5,4-c′]dipyridin-2(1H)-yl)ethan-1-one] | 43 | 
O=C(COc1ccc2ccccc2c1)N1CCc2nc3cc(C(F)(F)F)ccn3c2C1c1cccnc1F (stereo not drawn) [Example 3.2.2, 1-(1-(2-fluoropyridin-3-yl)-7-(trifluoromethyl)-3,4-dihydroimidazo[1,2-a:5,4-c′]dipyridin-2(1H)-yl)-2-(naphthalen-2-yloxy)ethan-1-one] | 82 | 
Cc1ccc(OCC(=O)N2CCc3nc4cc(C(F)(F)F)ccn4c3C2c2cccnc2F)cc1 (stereo not drawn) [Example 3.2.3, 1-(1-(2-fluoropyridin-3-yl)-7-(trifluoromethyl)-3,4-dihydroimidazo[1,2-a:5,4-c′]dipyridin-2(1H)-yl)-2-(p-tolyloxy)ethan-1-one] | 251 | 
COc1ccc(C2c3c(nc4cc(C(F)(F)F)ccn34)CCN2C(=O)COc2ccc3ccccc3c2)c(F)c1 (stereo not drawn) [Example 3.3.1, 1-(1-(2-fluoro-4-methoxyphenyl)-7-(trifluoromethyl)-3,4-dihydroimidazo[1,2-a:5,4-c′]dipyridin-2(1H)-yl)-2-(naphthalen-2-yloxy)ethan-1-one] | 5 | 
COc1ccc(C2c3c(nc4cc(C(F)(F)F)ccn34)CCN2C(=O)COc2ccc(CN3CCOCC3)cc2Cl)c(F)c1 (stereo not drawn) [Example 3.3.2, 2-(2-chloro-4-(morpholinomethyl)phenoxy)-1-(1-(2-fluoro-4-methoxyphenyl)-7-(trifluoromethyl)-3,4-dihydroimidazo[1,2-a:5,4-c′]dipyridin-2(1H)-yl)ethan-1-one] | 7 | 
COc1ccc(C2c3c(nc4cc(C(F)(F)F)ccn34)CCN2C(=O)COc2ccc(CN3CCOCC3)c(C)c2C)c(F)c1 (stereo not drawn) [Example 3.3.3, 2-(2,3-dimethyl-4-(morpholinomethyl)phenoxy)-1-(1-(2-fluoro-4-methoxyphenyl)-7-(trifluoromethyl)-3,4-dihydroimidazo[1,2-a:5,4-c′]dipyridin-2(1H)-yl)ethan-1-one] | 8 | 
COc1ccc(C2c3c(nc4cc(C(F)(F)F)ccn34)CCN2C(=O)COc2ccc3c(c2C)CCN(C(=O)OC(C)(C)C)C3)c(F)c1 (stereo not drawn) [Example 3.3.4, tert-butyl 6-(2-(1-(2-fluoro-4-methoxyphenyl)-7-(trifluoromethyl)-3,4-dihydroimidazo[1,2-a:5,4-c′]dipyridin-2(1H)-yl)-2-oxoethoxy)-5-methyl-3,4-dihydroisoquinoline-2(1H)-carboxylate] | 178 | 
COc1ccc(C2c3c(nc4cc(C(F)(F)F)ccn34)CCN2C(=O)COc2ccc3c(c2C)CCNC3)c(F)c1 (stereo not drawn) [Example 3.3.5, 1-(1-(2-fluoro-4-methoxyphenyl)-7-(trifluoromethyl)-3,4-dihydroimidazo[1,2-a:5,4-c′]dipyridin-2(1H)-yl)-2-((5-methyl-1,2,3,4-tetrahydroisoquinolin-6-yl)oxy)ethan-1-one] | 217 | 
COc1ccc(C2c3c(nc4cc(C(F)(F)F)ccn34)CCN2C(=O)COc2ccc3c(c2C)CCN(C(C)=O)C3)c(F)c1 (stereo not drawn) [Example 3.3.6, 2-((2-acetyl-5-methyl-1,2,3,4-tetrahydroisoquinolin-6-yl)oxy)-1-(1-(2-fluoro-4-methoxyphenyl)-7-(trifluoromethyl)-3,4-dihydroimidazo[1,2-a:5,4-c′]dipyridin-2(1H)-yl)ethan-1-one] | 11 | 
COc1ccc(C2c3c(nc4cc(C(F)(F)F)ccn34)CCN2C(=O)COc2ccc3c(c2C)CCN(C)C3)c(F)c1 (stereo not drawn) [Example 3.3.7, 2-((2,5-dimethyl-1,2,3,4-tetrahydroisoquinolin-6-yl)oxy)-1-(1-(2-fluoro-4-methoxyphenyl)-7-(trifluoromethyl)-3,4-dihydroimidazo[1,2-a:5,4-c′]dipyridin-2(1H)-yl)ethan-1-one] | 117 | 
O=C(COc1cccnc1Cl)N1CCc2nc3cc(C(F)(F)F)ccn3c2C1c1ccc(Cl)cc1F (stereo not drawn) [Example 3.4.1, 1-(1-(4-chloro-2-fluorophenyl)-7-(trifluoromethyl)-3,4-dihydroimidazo[1,2-a:5,4-c′]dipyridin-2(1H)-yl)-2-((2-chloropyridin-3-yl)oxy)ethan-1-one] | 44 | 
O=C(COc1ccc(CN2CCOCC2)cc1Cl)N1CCc2nc3cc(C(F)(F)F)ccn3c2C1c1ccc(Cl)cc1F (stereo not drawn) [Example 3.4.2, 1-(1-(4-chloro-2-fluorophenyl)-7-(trifluoromethyl)-3,4-dihydroimidazo[1,2-a:5,4-c′]dipyridin-2(1H)-yl)-2-(2-chloro-4-(morpholinomethyl)phenoxy)ethan-1-one] | 7 | 
Cn1nc(OCC(=O)N2CCc3nc4cc(C(F)(F)F)ccn4c3C2c2ccc(Cl)cc2F)c(Cl)c1C(F)(F)F (stereo not drawn) [Example 3.4.3, 2-((4-chloro-1-methyl-5-(trifluoromethyl)-1H-pyrazol-3-yl)oxy)-1-(1-(4-chloro-2-fluorophenyl)-7-(trifluoromethyl)-3,4-dihydroimidazo[1,2-a:5,4-c′]dipyridin-2(1H)-yl)ethan-1-one] | 64 | 
CCc1nc(C)ccc1OCC(=O)N1CCc2nc3cc(C(F)(F)F)ccn3c2C1c1ccc(Cl)cc1F (stereo not drawn) [Example 3.4.4, 1-(1-(4-chloro-2-fluorophenyl)-7-(trifluoromethyl)-3,4-dihydroimidazo[1,2-a:5,4-c′]dipyridin-2(1H)-yl)-2-((2-ethyl-6-methylpyridin-3-yl)oxy)ethan-1-one] | 21 | 
O=C(COc1ccc(N2CCOCC2)cc1Cl)N1CCc2nc3cc(C(F)(F)F)ccn3c2[C@H]1c1ccc(Cl)cc1F [Example 3.4.5, ((1R)-1-(4-chloro-2-fluorophenyl)-7-(trifluoromethyl)-3,10a-dihydroimidazo[1,2-a:5,4-c′]dipyridin-2(1H)-yl)-2-(2-chloro-4-morpholinophenoxy)ethan-1-one] |  | 6
O=C(COc1ccc(N2CCOCC2)nc1Cl)N1CCc2nc3cc(C(F)(F)F)ccn3c2C1c1ccc(Cl)cc1F (stereo not drawn) [Example 3.4.6, 1-(1-(4-chloro-2-fluorophenyl)-7-(trifluoromethyl)-3,4-dihydroimidazo[1,2-a:5,4-c′]dipyridin-2(1H)-yl)-2-((2-chloro-6-morpholinopyridin-3-yl)oxy)ethan-1-one] | 5 | 
CS(=O)(=O)Nc1ccc(OCC(=O)N2CCc3nc4cc(C(F)(F)F)ccn4c3C2c2ccc(Cl)cc2F)c(Cl)n1 (stereo not drawn) [Example 3.4.7, N-(6-chloro-5-(2-(1-(4-chloro-2-fluorophenyl)-7-(trifluoromethyl)-3,4-dihydroimidazo[1,2-a:5,4-c′]dipyridin-2(1H)-yl)-2-oxoethoxy)pyridin-2-yl)methanesulfonamide] | 5 | 
CCc1nc(C)ccc1OCC(=O)N1CCc2nc3cc(C(F)(F)F)ccn3c2C1c1ccc(C2CC2)cc1F (stereo not drawn) [Example 3.5.1, 1-(1-(4-cyclopropyl-2-fluorophenyl)-7-(trifluoromethyl)-3,4-dihydroimidazo[1,2-a:5,4-c′]dipyridin-2(1H)-yl)-2-((2-ethyl-6-methylpyridin-3-yl)oxy)ethan-1-one] | 11 | 
O=C(COc1ccc(N2CCOCC2)cc1Cl)N1CCc2nc3cc(C(F)(F)F)ccn3c2C1c1ccc(C2CC2)cc1F (stereo not drawn) [Example 3.5.2, 2-(2-chloro-4-morpholinophenoxy)-1-(1-(4-cyclopropyl-2-fluorophenyl)-7-(trifluoromethyl)-3,4-dihydroimidazo[1,2-a:5,4-c′]dipyridin-2(1H)-yl)ethan-1-one] | 6 | 
CCc1c(OCC(=O)N2CCc3nc4cc(C(F)(F)F)ccn4c3C2c2ccc(C3CC3)cc2F)ccc(C)[n+]1[O-] (stereo not drawn) [Example 3.5.3, 1-(1-(4-cyclopropyl-2-fluorophenyl)-7-(trifluoromethyl)-3,4-dihydroimidazo[1,2-a:5,4-c′]dipyridin-2(1H)-yl)-2-((2-ethyl-6-methyl-1-(I1-oxidanyl)-1I4-pyridin-3-yl)oxy)ethan-1-one] | 85 | 
O=C(COc1ccc[n+]([O-])c1Cl)N1CCc2nc3cc(C(F)(F)F)ccn3c2C1c1ccc(C2CC2)cc1F (stereo not drawn) [Example 3.5.4, 2-((2-chloro-1-(I1-oxidanyl)-1I4-pyridin-3-yl)oxy)-1-(1-(4-cyclopropyl-2-fluorophenyl)-7-(trifluoromethyl)-3,4-dihydroimidazo[1,2-a:5,4-c′]dipyridin-2(1H)-yl)ethan-1-one] | 210 | 
COc1ccc(C2c3c(nc4cc(C(F)(F)F)ccn34)CCN2C(=O)COc2ccc3ccccc3c2)cn1 (stereo not drawn) [Example 3.6.1, 1-(1-(6-methoxypyridin-3-yl)-7-(trifluoromethyl)-3,4-dihydroimidazo[1,2-a:5,4-c′]dipyridin-2(1H)-yl)-2-(naphthalen-2-yloxy)ethan-1-one] | 52 | 

Reference: patent US20180155344A1, “TRICYCLIC PIPERIDINE COMPOUNDS” (ACTELION PHARMACEUTICALS LTD, priority 2015, published 2018)
